In patent US20250205361A1, “TREATMENT […] FOR T[…] […] ACT VIA AN INT[…] TARGET” (priority 2023, published 2025):

Columns and labels:
Ttr RNA = Ttr RNA quantification (qRT-PCR) in murine primary hepatocytes, depot release; format: cell-based, mouse; settings: 0.05 nM GN3-siTTR 6 hrs loading, wash, saponin component 48 hrs
Procedure: Wells of a 24- or 96-well plate (Greiner BioOne) were coated overnight at 37° C. with rat collagen-I (Ibidi). Next day the coating solution was removed and the wells were washed 1× with PBS (PAN-Biotech GmbH). Hepatocyte Plating Medium (HPM, […] Cell Culture Technology GmbH) was added using 210 μl or 35 μl per well, per 24-wp or 96-wp respectively. Next, GN3-siTTR/DPBS was dissolved at 10× the final concentration (final concentration is 0.5 nM or 0.05 nM GN3-siTTR, as indicated) and 90 μl or 15 μl was added to each well, per 24-wp or 96-wp respectively. Cryopreserved primary mouse hepatocytes (Cytes Biotechnology) were thawed in Hepatocyte Thawing Medium (HTM, […] Cell Culture Technology GmbH) and collected by centrifugation at 50×g for 10 min. […]
RNA from cells was isolated using TRIzol™ Reagent (Thermo Scientific) according to the manufacturer's instruction. […] Ttr expression levels and levels of specific hepatocyte housekeeping genes were determined using quantitative real-time PCR assays (qRT-PCR) using iTaq™ Universal SYBR® Green Supermix (BioRad) and the Light Cycler 480 II (Roche Diagnostics) with specific DNA primers, listed in Table A2. […]
The timed, saponin-component-inducible release of a nucleic acid from endosomes after prior loading cells with the nucleic acid was also assessed in vitro in murine primary hepatocytes (MPH) in different dosing regimens. […]

A431 cells [1] = experiment: Cell viability (MTS) of A431 cells with aCD71-SPRN and saponin components; format: cell-based, human; settings: for potency of aCD71-SPRN versus co-administration / efficacy enhancement of aCD71-SPRN: 5 pM aCD71-SPRN 24 hr loading, wash; for efficacy enhancement of aCD71-SPRN: 24 hrs resting; for relative cell viability, efficacy of aCD71-SPRN: 5 pM aCD71-SPRN + concentration range of saponin component, 48 hr co-administration
Procedure: Cells were cultured in DMEM (PAN-Biotech GmbH) supplemented with 10% fetal bovine serum (FBS) (PAN-Biotech GmbH) and Pen/Strep (PAN-Biotech GmbH) at 37° C. and 5% CO2. Cells were seeded in a 96-well plate at 5.000-6.000 cells/well in 100 μL/well and incubated overnight at 37° C. […] The medium was removed from the cell culture plate and replaced by 180 μL fresh culture medium, followed by the addition of 20 μL 10× compound-mix/well. PBS treatment served as vehicle control. After 24 hrs treatment, the cells were washed and incubated with medium or medium containing PBS/saponin components for the time indicated in FIG. 6B, 6C, 6D at 37° C. At the end of the experiment at 48 hr after saponin component treatment or PBS treatment the cells were harvested for cell viability analysis. Alternatively, as a positive control, the cells were treated with a co-administration of protein toxin and saponin component (or PBS) mix for 48 hrs without medium change, FIG. 6A.
After treatment cell viability was determined by an MTS-assay, performed according to the manufacturer's instruction (CellTiter 96@AQueous One Solution Cell Proliferation Assay, Promega). Briefly, the MTS solution was diluted 20′ in DMEM without phenol red (PAN-Biotech GmbH) supplemented with 10% FBS. The cells were washed once with 200 μL/PBS well, after which 100 μL diluted MTS solution was added/well. The plate was incubated for approximately 20-30 minutes at 37° C. Subsequently, the OD at 492 nm was measured on a Spectramax iD5 plate reader (Molecular Devices). For quantification the background signal of ‘medium only’ wells was subtracted from all other wells, before the cell viability percentage of treated/untreated cells was calculated, by dividing the background corrected signal of treated wells over the background corrected signal of the untreated wells (×100).
One disadvantage of these types of immunotoxins for clinical use is their relatively narrow therapeutic window and associated potentially life-threatening toxicities at dose levels that are therapeutic. Here, the in vitro efficacy and enhancement of effect durability of an immunotoxin (anti-CD71-saporin, also referred to as aCD71-SPRN, protein toxin) by endosome escape enhancer saponin components was assessed in epidermoid carcinoma cells and metastatic melanoma cells. A concentration range of a saponin component was added either together with a fixed concentration of 5 pM aCD71-SPRN to the cancer cells, or at various time points after the loading of the cancer cells with a fixed concentration of 5 pM aCD71-SPRN (according to dosing schemes in FIG. 6A, 6B, 6C, 6D). As a negative control, cells were loaded with protein toxin according to scheme FIG. 6A-D but received medium with PBS instead of saponin component.

A431 cells [2] = experiment: Imaging of Cy5 fluorescence release from Cet-Cy5 loaded A431 cells; format: cell-based, human; settings: A431 loaded with 2 nM Cet-Cy5 48 hrs, wash, 24 hrs resting, saponin component added at 72 hrs
Procedure: Cells were cultured in DMEM (PAN-Biotech GmbH) supplemented with 10% fetal bovine serum (FBS) (PAN-Biotech GmbH) and Pen/Strep (PAN-Biotech GmbH) at 37° C. and 5% CO2.

[3] = 6 hrs resting, saponin component 48 hrs
[4] = saponin component added directly, 48 hrs

SMILES | remaining Ttr levels (Ttr RNA) [%] | potency of aCD71-SPRN versus co-administration (A431 cells [1]; [3]) | efficacy enhancement of aCD71-SPRN (A431 cells [1]; saponin component 48 hrs) | potency of aCD71-SPRN versus co-administration (A431 cells [1]; [4]) | relative cell viability, efficacy of aCD71-SPRN (A431 cells [1]) | Cy5 fluorescence state at end of experiment at 160 hrs (A431 cells [2])
CC(=O)OC1C(C)OC(OC2C(C)OC(OC(=O)[C@]34CCC(C)(C)CC3C3=CCC5[C@@]6(C)CC[C@H](OC7OC(C(=O)O)C(O)C(OC8OCC(O)C(O)C8O)C7OC7OC(CO)C(O)C(O)C7O)[C@@](C)(/C=N/NC(=O)CCCCCN7C(=O)CC(SCCO)C7=O)C6CC[C@@]5(C)[C@]3(C)C[C@H]4O)C(OC3OC(C)C(OC4OCC(O)C(OC5OC(CO)C(O)C(O)C5O)C4O)C(O)C3O)C2O)C(O)C1OC1OCC(O)C(O)C1O (some centres unmarked) [SO1861-AH-Maleimide-Block] | 3 | very comparable to the co-administration | still apparent | comparable high potency | reduces cell viability | 
CC(=O)O[C@H]1[C@H](O[C@@H]2OC[C@@H](O)[C@H](O)[C@H]2O)[C@@H](O)[C@H](O[C@@H]2[C@H](O)[C@@H](O[C@@H]3O[C@@H](C)[C@H](O[C@@H]4OC[C@@H](O)[C@H](O[C@@H]5O[C@H](CO)[C@@H](O)[C@H](O)[C@H]5O)[C@H]4O)[C@@H](O)[C@H]3O)[C@H](OC(=O)[C@]34CCC(C)(C)C[C@H]3C3=CC[C@@H]5[C@@]6(C)CC[C@H](O[C@@H]7O[C@H](C(=O)O)[C@@H](O)[C@H](O[C@@H]8OC[C@@H](O)[C@H](O)[C@H]8O)[C@H]7O[C@@H]7O[C@H](CO)[C@H](O)[C@H](O)[C@H]7O)[C@@](C)(C=O)[C@@H]6CC[C@@]5(C)[C@]3(C)C[C@H]4O)O[C@@H]2C)O[C@@H]1C [SO1861] | 10 | very comparable to the co-administration | still apparent | comparable high potency | reduces cell viability | zero fluorescent state
